Patent US7566712B2, “Biaryl piperazinyl-pyridine analogues” (Neurogen Corporation, priority 2003, dated 2009)

Biological target: T1, human capsaicin receptor (Homo sapiens, UniProt Q8NER1)
T1 construct: pBK-CMV expression construct encoding the full length human capsaicin receptor; expressed in transfected cells
Test: Calcium mobilization assay, determination of antagonist activity (Example 6)
Format: cell-based
Conditions: Table II; determined as described in Example 6 (antagonist activity); "*" = 1 micromolar or less
How it was run: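 HEK293 clonal lines stably expressing full-length human capsaicin receptor, loaded with Fluo-3 AM in KRH buffer pH 7.4, 1–2 h at 37 °C. Compounds (1–5 μM final) preincubated 0.5–6 h at room temperature, then capsaicin at its EC50 added. FLIPR/Fluoroskan calcium signal; IC50 as 50% decrease of capsaicin response.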

T1 sequence (Q8NER1 whole entry): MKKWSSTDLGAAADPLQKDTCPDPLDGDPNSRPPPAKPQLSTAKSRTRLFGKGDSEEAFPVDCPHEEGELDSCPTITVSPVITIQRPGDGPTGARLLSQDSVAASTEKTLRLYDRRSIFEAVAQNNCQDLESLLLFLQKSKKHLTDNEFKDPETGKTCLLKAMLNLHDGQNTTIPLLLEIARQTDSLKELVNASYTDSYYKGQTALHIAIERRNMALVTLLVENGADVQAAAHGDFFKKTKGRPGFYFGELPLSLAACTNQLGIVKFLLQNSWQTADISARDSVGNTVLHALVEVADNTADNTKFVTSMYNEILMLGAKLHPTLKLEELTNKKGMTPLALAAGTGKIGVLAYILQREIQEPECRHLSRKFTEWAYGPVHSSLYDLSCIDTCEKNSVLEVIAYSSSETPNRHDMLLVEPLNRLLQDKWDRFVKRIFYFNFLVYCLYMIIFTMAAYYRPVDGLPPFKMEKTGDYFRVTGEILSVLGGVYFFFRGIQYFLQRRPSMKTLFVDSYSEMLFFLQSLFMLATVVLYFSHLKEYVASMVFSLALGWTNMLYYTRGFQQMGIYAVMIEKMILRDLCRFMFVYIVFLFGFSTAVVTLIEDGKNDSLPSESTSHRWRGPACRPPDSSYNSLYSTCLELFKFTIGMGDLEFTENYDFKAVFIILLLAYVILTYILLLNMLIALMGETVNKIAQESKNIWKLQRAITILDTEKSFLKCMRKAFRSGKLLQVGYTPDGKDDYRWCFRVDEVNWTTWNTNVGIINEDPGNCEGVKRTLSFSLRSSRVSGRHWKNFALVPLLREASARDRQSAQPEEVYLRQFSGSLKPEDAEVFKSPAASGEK

SMILES	IC50
CN(C)C1CN(c2nc(-c3ccc(F)c(Cl)c3)cc(N3CCN(c4ncccc4C(F)(F)F)CC3)n2)C1 [Example 789, 1-(4-(3-chloro-4-fluorophenyl)-6-{4-[3-(trifluoromethyl)pyridin-2-yl]piperazin-1-yl}pyrimidin-2-yl)-N,N-dimethylazetidin-3-amine]	≤ 1000 nM
CCN(CC)C1CN(c2nc(-c3ccc(F)c(Cl)c3)cc(N3CCN(c4ncccc4C(F)(F)F)CC3)n2)C1 [Example 790, 1-(4-(3-chloro-4-fluorophenyl)-6-{4-[3-(trifluoromethyl)pyridin-2-yl]piperazin-1-yl}pyrimidin-2-yl)-N,N-diethylazetidin-3-amine]	≤ 1000 nM
C[C@@H]1CN(c2ncccc2C(F)(F)F)CCN1c1cc(-c2ccc(F)c(F)c2)nc(N2CCCC2)n1 [Example 791, 4-(3,4-difluorophenyl)-6-{(2R)-2-methyl-4-[3-(trifluoromethyl)pyridin-2-yl]piperazin-1-yl}-2-pyrrolidin-1-ylpyrimidine]	≤ 1000 nM
CC1CCCN1c1nc(-c2ccc(F)c(F)c2)cc(N2CCN(c3ncccc3C(F)(F)F)C[C@H]2C)n1 (stereo partly drawn) [Example 792, 4-(3,4-difluorophenyl)-2-(2-methylpyrrolidin-1-yl)-6-{(2R)-2-methyl-4-[3-(trifluoromethyl)pyridin-2-yl]piperazin-1-yl}pyrimidine]	≤ 1000 nM
C[C@@H]1CN(c2ncccc2C(F)(F)F)CCN1c1cc(-c2ccc(F)c(F)c2)nc(N2CCCCC2)n1 [Example 793, 4-(3,4-difluorophenyl)-6-{(2R)-2-methyl-4-[3-(trifluoromethyl)pyridin-2-yl]piperazin-1-yl}-2-piperidin-1-ylpyrimidine]	≤ 1000 nM
Cc1cc(-c2cc(N3CCN(c4ncccc4C(F)(F)F)C[C@H]3C)nc(N3CCC3(C)C)n2)ccc1F [Example 794, 2-(2,2-dimethylazetidin-1-yl)-4-(4-fluoro-3-methylphenyl)-6-{(2R)-2-methyl-4-[3-(trifluoromethyl)pyridin-2-yl]piperazin-1-yl}pyrimidine]	≤ 1000 nM
Cc1cc(-c2cc(N3CCN(c4ncccc4C(F)(F)F)CC3)nc(N(C)C(C)CO)n2)ccc1F (stereo not drawn) [Example 795]	≤ 1000 nM
CC(C)c1cc(-c2cc(N3CCN(c4ncccc4C(F)(F)F)CC3)nc(N3CCCC3C)n2)ccn1 (stereo not drawn) [Example 796, 4-(2-isopropylpyridin-4-yl)-2-(2-methylpyrrolidin-1-yl)-6-{4-[3-(trifluoromethyl)pyridin-2-yl]piperazin-1-yl}pyrimidine]	≤ 1000 nM
CCOC(=O)C1CCN(c2nc(-c3ccc(F)c(Cl)c3)cc(N3CCN(c4ncccc4C(F)(F)F)CC3)n2)CC1 [Example 797, ethyl 1-(4-(3-chloro-4-fluorophenyl)-6-{4-[3-(trifluoromethyl)pyridin-2-yl]piperazin-1-yl}pyrimidin-2-yl)piperidine-4-carboxylate]	≤ 1000 nM
CCOC(=O)C1CCCN(c2nc(-c3ccc(F)c(Cl)c3)cc(N3CCN(c4ncccc4C(F)(F)F)CC3)n2)C1 (stereo not drawn) [Example 798, ethyl 1-(4-(3-chloro-4-fluorophenyl)-6-{4-[3-(trifluoromethyl)pyridin-2-yl]piperazin-1-yl}pyrimidin-2-yl)piperidine-3-carboxylate]	≤ 1000 nM
O=C(O)C1CCN(c2nc(-c3ccc(F)c(Cl)c3)cc(N3CCN(c4ncccc4C(F)(F)F)CC3)n2)CC1 [Example 799, 1-(4-(3-chloro-4-fluorophenyl)-6-{4-[3-(trifluoromethyl)pyridin-2-yl]piperazin-1-yl}pyrimidin-2-yl)piperidine-4-carboxylic acid]	≤ 1000 nM
O=C(O)C1CCCN(c2nc(-c3ccc(F)c(Cl)c3)cc(N3CCN(c4ncccc4C(F)(F)F)CC3)n2)C1 (stereo not drawn) [Example 800, 1-(4-(3-chloro-4-fluorophenyl)-6-{4-[3-(trifluoromethyl)pyridin-2-yl]piperazin-1-yl}pyrimidin-2-yl)piperidine-3-carboxylic acid]	≤ 1000 nM
CC1=NCCN1c1nc(-c2ccc(F)c(Cl)c2)cc(N2CCN(c3ncccc3C(F)(F)F)CC2)n1 [Example 801, 4-(3-chloro-4-fluorophenyl)-2-(2-methyl-4,5-dihydro-1H-imidazol-1-yl)-6-{4-[3-(trifluoromethyl)pyridin-2-yl]piperazin-1-yl}pyrimidine]	≤ 1000 nM
Cc1ccc(-c2cc(N3CCN(c4ncccc4Cl)C[C@H]3C)nc(N3CCCC3)n2)cc1F [Example 802]	≤ 1000 nM
Cc1ccc(-c2cc(N3CCN(c4ncccc4Cl)C[C@H]3C)nc(N3CCCC3C)n2)cc1F (stereo partly drawn) [Example 803, 4-[(2R)-4-(3-chloropyridin-2-yl)-2-methylpiperazin-1-yl]-6-(3-fluoro-4-methylphenyl)-2-(2-methylpyrrolidin-1-yl)pyrimidine]	≤ 1000 nM
Cc1ccc(-c2cc(N3CCN(c4ncccc4Cl)C[C@H]3C)nc(N3CCCCC3)n2)cc1F [Example 804, 4-[(2R)-4-(3-chloropyridin-2-yl)-2-methylpiperazin-1-yl]-6-(3-fluoro-4-methylphenyl)-2-piperidin-1-ylpyrimidine]	≤ 1000 nM
Cc1ccc(-c2cc(N3CCN(c4ncccc4Cl)C[C@H]3C)nc(N3CCCC3)n2)cc1C [Example 805, 4-[(2R)-4-(3-chloropyridin-2-yl)-2-methylpiperazin-1-yl]-6-(3,4-dimethylphenyl)-2-pyrrolidin-1-ylpyrimidine]	≤ 1000 nM
C[C@@H]1CN(c2ncccc2Cl)CCN1c1cc(-c2cncc(Cl)c2)nc(N2CCCC2)n1 [Example 806, 4-(5-chloropyridin-3-yl)-6-[(2R)-4-(3-chloropyridin-2-yl)-2-methylpiperazin-1-yl]-2-pyrrolidin-1-ylpyrimidine]	≤ 1000 nM
CC1CCCN1c1nc(-c2cncc(Cl)c2)cc(N2CCN(c3ncccc3Cl)C[C@H]2C)n1 (stereo partly drawn) [Example 807]	≤ 1000 nM
Cc1ccc(-c2cc(N3CCN(c4ncccc4Cl)C[C@H]3C)nc(N3CCCC3C)n2)cc1C (stereo partly drawn) [Example 808, 4-[(2R)-4-(3-chloropyridin-2-yl)-2-methylpiperazin-1-yl]-6-(3,4-dimethylphenyl)-2-(2-methylpyrrolidin-1-yl)pyrimidine]	≤ 1000 nM
COc1ccc(-c2cc(N3CCN(c4ncccc4Cl)C[C@H]3C)nc(N3CCCC3)n2)cc1C [Example 809, 4-[(2R)-4-(3-chloropyridin-2-yl)-2-methylpiperazin-1-yl]-6-(4-methoxy-3-methylphenyl)-2-pyrrolidin-1-ylpyrimidine]	≤ 1000 nM
COc1ccc(-c2cc(N3CCN(c4ncccc4Cl)C[C@H]3C)nc(N3CCCC3C)n2)cc1C (stereo partly drawn) [Example 810, 4-[(2R)-4-(3-chloropyridin-2-yl)-2-methylpiperazin-1-yl]-6-(4-methoxy-3-methylphenyl)-2-(2-methylpyrrolidin-1-yl)pyrimidine]	≤ 1000 nM
CC(C)N(C)C1CN(c2nc(-c3ccc(F)c(Cl)c3)cc(N3CCN(c4ncccc4C(F)(F)F)CC3)n2)C1 [Example 811, 1-(4-(3-chloro-4-fluorophenyl)-6-{4-[3-(trifluoromethyl)pyridin-2-yl]piperazin-1-yl}pyrimidin-2-yl)-N-isopropyl-N-methylazetidin-3-amine]	≤ 1000 nM
CCOC(=O)CN(C)c1nc(-c2ccc(F)c(Cl)c2)cc(N2CCN(c3ncccc3C(F)(F)F)CC2)n1 [Example 812, ethyl N-(4-(3-chloro-4-fluorophenyl)-6-{4-[3-(trifluoromethyl)pyridin-2-yl]piperazin-1-yl}pyrimidin-2-yl)-N-methylglycinate]	≤ 1000 nM
